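Compound exposure: 48 hours, 5 concentrations, 96-well plates. GI50 = concentration required for 50% inhibition of growth.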 Calls of active or inactive are those of the source. No stated cut-off is given here; in the data, active = GI50 up to about 1.1 µM and inactive = higher.
How the values were obtained:
Assay in all cases: DTP human tumour cell line panel, 48 h
EKVX = tested on: EKVX
IGROV-1 = tested on: IGROV-1
Malme-3M = tested on: Malme-3M
MCF7 = tested on: MCF7
SK-MEL-28 = tested on: SK-MEL-28
MOLT-4 = tested on: MOLT-4
UACC-257 = tested on: UACC-257
COLO 205 = tested on: COLO 205
NCI-H522 = tested on: NCI-H522
ACHN = tested on: ACHN
HCT-116 = tested on: HCT-116
SK-OV-3 = tested on: SK-OV-3
HL-60 = tested on: HL-60
NCI-H226 = tested on: NCI-H226
MDA-MB-435 = tested on: MDA-MB-435
OVCAR-5 = tested on: OVCAR-5
U-251 = tested on: U-251
HT-29 = tested on: HT-29
RXF 393 = tested on: RXF 393
SK-MEL-2 = tested on: SK-MEL-2

Compound	GI50 (EKVX)	GI50 (IGROV-1)	GI50 (Malme-3M)	GI50 (MCF7)	GI50 (SK-MEL-28)	GI50 (MOLT-4)	GI50 (UACC-257)	GI50 (COLO 205)	GI50 (NCI-H522)	GI50 (ACHN)	GI50 (HCT-116)	GI50 (SK-OV-3)	GI50 (HL-60)	GI50 (NCI-H226)	GI50 (MDA-MB-435)	GI50 (OVCAR-5)	GI50 (U-251)	GI50 (HT-29)	GI50 (RXF 393)	GI50 (SK-MEL-2)
COc1ccc(/C=C2\CC3C4CC=C5C[C@@H](O)CC[C@]5(C)C4CC[C@]3(C)\C2=N\O)cc1OC (stereo not given in full)	6 µM (inactive)	38.8 µM (inactive)	33.3 µM (inactive)	4.24 µM (inactive)	23 µM (inactive)	5.37 µM (inactive)	7.94 µM (inactive)	5.13 µM (inactive)	13.9 µM (inactive)	3.98 µM (inactive)	5.14 µM (inactive)	49.3 µM (inactive)	11.2 µM (inactive)	7.28 µM (inactive)	23.3 µM (inactive)	16 µM (inactive)	9.2 µM (inactive)	9.02 µM (inactive)	7.73 µM (inactive)	7.57 µM (inactive)
COC(=O)C1(Cc2ccccc2)Cc2cc3c(cc2C1)CCC3	21.5 µM (inactive)	24.5 µM (inactive)	22.3 µM (inactive)	15.5 µM (inactive)	41.1 µM (inactive)	15.5 µM (inactive)	29.2 µM (inactive)	16.7 µM (inactive)	22.2 µM (inactive)	30 µM (inactive)	22 µM (inactive)	32.3 µM (inactive)	14.1 µM (inactive)	22 µM (inactive)	12.4 µM (inactive)	27.7 µM (inactive)	22.4 µM (inactive)	10.5 µM (inactive)	20.1 µM (inactive)	18.5 µM (inactive)
CC(=O)/N=C1/N(/C=C2\C(=O)Oc3ccccc3C2=O)C(=O)/C(=C/c2ccc(OC(C)=O)cc2)N1C	> 100 µM (inactive)	> 100 µM (inactive)	> 100 µM (inactive)	> 100 µM (inactive)	> 100 µM (inactive)	> 100 µM (inactive)	> 100 µM (inactive)	> 100 µM (inactive)	> 100 µM (inactive)	> 100 µM (inactive)	> 100 µM (inactive)	> 100 µM (inactive)	> 100 µM (inactive)	> 100 µM (inactive)	> 100 µM (inactive)	> 100 µM (inactive)	> 100 µM (inactive)	> 100 µM (inactive)	> 100 µM (inactive)	> 100 µM (inactive)
Cc1c2cccc-2ccc2c3ccccc3n(C(=O)c3ccc(Cl)cc3)c12	34.1 µM (inactive)	> 100 µM (inactive)	> 100 µM (inactive)	0.479 µM (active)	> 100 µM (inactive)	> 85.5 µM (inactive)	> 100 µM (inactive)	46.7 µM (inactive)	> 100 µM (inactive)	> 100 µM (inactive)	96.8 µM (inactive)	> 100 µM (inactive)	> 82.6 µM (inactive)	> 100 µM (inactive)	> 100 µM (inactive)	> 100 µM (inactive)	> 100 µM (inactive)	> 76.7 µM (inactive)	> 100 µM (inactive)	> 100 µM (inactive)
COc1cccc(NC(=O)CC(=O)n2nc(-c3ccccc3)c(/N=N/c3ccc(Cl)cc3)c2-c2ccccc2)c1	24 µM (inactive)	7.55 µM (inactive)	13.7 µM (inactive)	7.57 µM (inactive)	25.5 µM (inactive)	9.84 µM (inactive)	24.3 µM (inactive)	23 µM (inactive)	19.4 µM (inactive)	19.9 µM (inactive)	19.4 µM (inactive)	5.33 µM (inactive)	6.43 µM (inactive)	20.3 µM (inactive)	38.7 µM (inactive)	64.9 µM (inactive)	7.87 µM (inactive)	19.6 µM (inactive)	23 µM (inactive)	21.5 µM (inactive)
